According to patent US10597388B2, “Pyridazinone herbicides” (FMC CORPORATION, priority 2014, dated 2020):

What was measured:
Format in all cases: in vivo
[1] = test system: ducksalad (Heteranthera limosa); assay: Test B flooded paddy test; details: 250 g ai/ha, Flood; visual rating on scale of 0 to 100 where 0 is no effect and 100 is complete control; 13 to 15 d after treatment
Method in brief: (§1)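 Ratings use a 0-100 visual scale, where 100 is complete control, and compare treated plants with controls after 13 to 15 d of greenhouse growth. Compound went straight into paddy water kept 3 cm over the soil surface, applied to seedlings at the 2-leaf stage.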

[2] = test system: sedge, umbrella (small-flower umbrella sedge, Cyperus difformis); assay: Test B flooded paddy test; details: 250 g ai/ha, Flood; visual rating on scale of 0 to 100 where 0 is no effect and 100 is complete control; 13 to 15 d after treatment
Method in brief: as §1

rice (Oryza sativa) = assay: Test B flooded paddy test; details: 250 g ai/ha, Flood; visual rating on scale of 0 to 100 where 0 is no effect and 100 is complete control; 13 to 15 d after treatment
Method in brief: as §1

[3] = test system: barnyardgrass (Echinochloa crus-galli); assay: Test B flooded paddy test; details: 250 g ai/ha, Flood; visual rating on scale of 0 to 100 where 0 is no effect and 100 is complete control; 13 to 15 d after treatment
Method in brief: as §1

[4] = test system: wheat (Triticum aestivum); assay: Test A greenhouse herbicide test, pre- and postemergence; details: Postemergence
Text: (§2) Seeds of plant species selected from barnyardgrass (Echinochloa crus-galli), kochia (Kochia scoparia), ragweed (common ragweed, Ambrosia elatior), ryegrass, Italian (Italian ryegrass, Lolium multiflorum), crabgrass, large (large crabgrass, Digitaria sanguinalis), foxtail, giant (giant foxtail, Setaria faberii), momingglory (Ipomoea spp.), pigweed (Amaranthus retroflexus), velvetleaf (Abutilon theophrasti), wheat (Triticum aestivum), and corn (Zea mays) were planted into a blend of loam soil and sand and treated preemergence with a directed soil spray using test chemicals formulated in a non-phytotoxic solvent mixture which included a surfactant.
(§3) At the same time, plants selected from these crop and weed species and also blackgrass (Alopecurus myosuroides), and galium (catchweed bedstraw, Galium aparine) were planted in pots containing the same blend of loam soil and sand and treated with postemergence applications of test chemicals formulated in the same manner. Plants ranged in height from 2 to 10 cm and were in the one- to two-leaf stage for the postemergence treatment. Treated plants and untreated controls were maintained in a greenhouse for approximately 10 d, after which time all treated plants were compared to untreated controls and visually evaluated for injury. Plant response ratings, summarized in Table A, are based on a 0 to 100 scale where 0 is no effect and 100 is complete control. A dash (-) response means no test result.

[5] = test system: ragweed (common ragweed, Ambrosia elatior); assay: as above
Text: as §2, §3

corn (Zea mays) = assay: as above; details: Postemergence
Text: as §2, §3

[6] = test system: pigweed (Amaranthus retroflexus); assay: as above
Text: as §2, §3

[7] = test system: foxtail, giant (giant foxtail, Setaria faberii); assay: as above
Text: as §2, §3

[8] = test system: ryegrass, Italian (Italian ryegrass, Lolium multiflorum); assay: as above
Text: as §2, §3

[9] = test system: barnyardgrass (Echinochloa crus-galli); assay: as above
Text: as §2, §3

kochia (Kochia scoparia) = assay: as above
Text: as §2, §3

[10] = test system: galium (catchweed bedstraw, Galium aparine); assay: Test A greenhouse herbicide test, postemergence
Method in brief: (§4)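 Seedlings in a loam soil and sand mix received formulated compound postemergence at the one- to two-leaf stage. Greenhouse holding lasts approximately 10 d, then injury is scored visually relative to untreated plants, 0 meaning no effect and 100 complete control.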

[11] = test system: blackgrass (Alopecurus myosuroides); assay: Test A greenhouse herbicide test, postemergence; details: for Blackgrass plant response rating: 0 is no effect, 100 is complete control
Method in brief: as §4

[12] = 125 g ai/ha, 0 to 100 scale, 0 no effect, 100 complete control
[13] = 500 g ai/ha, visual rating after approx. 10 d, 0 to 100 scale (0 no effect, 100 complete control)
[14] = Postemergence, 125 g ai/ha, 0 to 100 scale, 0 no effect, 100 complete control
[15] = Postemergence, 500 g ai/ha, visual rating after approx. 10 d, 0 to 100 scale (0 no effect, 100 complete control)
[16] = Preemergence, 125 g ai/ha, visual injury rating, 0 to 100 scale (0 no effect, 100 complete control), approx. 10 d
[17] = Preemergence, 500 g ai/ha, 0 to 100 scale where 0 is no effect and 100 is complete control
[18] = 1000 g ai/ha, 0 to 100 scale, 0 is no effect, 100 is complete control
[19] = Postemergence, 1000 g ai/ha, 0 to 100 scale, 0 is no effect, 100 is complete control
[20] = Preemergence, 1000 g ai/ha, 0 to 100 scale, 0 no effect, 100 complete control
[21] = 125 g ai/ha, 0 to 100 scale where 0 is no effect and 100 is complete control
[22] = Postemergence, 125 g ai/ha, 0 to 100 scale where 0 is no effect and 100 is complete control
[23] = Preemergence, 125 g ai/ha, 0 to 100 scale where 0 is no effect and 100 is complete control

Row | SMILES | Plant response rating, Ducksalad [1] | Plant response rating, Sedge, Umbrella [2] | Plant response rating, Rice (rice (Oryza sativa)) | Plant response rating, Barnyardgrass [3] | Plant response rating, Wheat [4, 13] | Plant response rating, Ragweed [5, 15] | Plant response rating, Ragweed [5, 17] | Plant response rating, Corn (corn (Zea mays); [13]) | Plant response rating, Pigweed [6, 15] | Plant response rating, Pigweed [6, 17] | Plant response rating, Foxtail, Giant [7, 15] | Plant response rating, Foxtail, Giant [7, 17] | Plant response rating, Ryegrass, Italian [8, 15] | Plant response rating, Ryegrass, Italian [8, 17] | Plant response rating, Barnyardgrass [9, 15] | Plant response rating, Barnyardgrass [9, 17] | Plant response rating, Kochia (kochia (Kochia scoparia); [15]) | Plant response rating, Kochia (kochia (Kochia scoparia); [17]) | Plant response rating, Galium [10, 13] | Plant response rating, Blackgrass [11, 13] | other results
1 | Cc1nn(C)c(=O)c(-c2c(C)sc3ccccc23)c1OC(=O)N1CCOCC1 [Compound 170] | 0 | 60 | 0 | 0 | 0 | 80 | 20 | 0 | 80 | 100 | 10 | 0 | 50 | 40 | 10 | 0 | 70 | 0 | 80 | 10 | Plant response rating, Wheat [4, 12]: 0; Plant response rating, Ragweed [5, 14]: 40; Plant response rating, Ragweed [5, 16]: 0; Plant response rating, Corn (corn (Zea mays); [12]): 0; Plant response rating, Pigweed [6, 14]: 70; Plant response rating, Pigweed [6, 16]: 30; Plant response rating, Foxtail, Giant [7, 14]: 0; Plant response rating, Foxtail, Giant [7, 16]: 0; Plant response rating, Ryegrass, Italian [8, 14]: 0; Plant response rating, Ryegrass, Italian [8, 16]: 0; Plant response rating, Barnyardgrass [9, 14]: 0; Plant response rating, Barnyardgrass [9, 16]: 0; Plant response rating, Kochia (kochia (Kochia scoparia); [14]): 0; Plant response rating, Kochia (kochia (Kochia scoparia); [16]): 0; Plant response rating, Galium [10, 12]: 40; Plant response rating, Blackgrass [11, 12]: 0
2 | Cc1nn(C)c(=O)c(-c2cccc3ccccc23)c1OCC=Cc1ccccc1 [Compound 180] | 0 | 0 | 0 | 0 | – | – | – | – | – | – | – | – | – | – | – | – | – | – | – | – | Wheat plant response rating [4, 18]: 0; Ragweed plant response rating [5, 19]: 0; Plant response rating, Ragweed [5, 20]: 40; Corn plant response rating (corn (Zea mays); [18]): 0; Pigweed plant response rating [6, 19]: 50; Plant response rating, Pigweed [6, 20]: 40; Foxtail, Giant plant response rating [7, 19]: 0; Plant response rating, Foxtail, Giant [7, 20]: 10; Ryegrass, Italian plant response rating [8, 19]: 70; Plant response rating, Ryegrass, Italian [8, 20]: 50; Barnyardgrass plant response rating [9, 19]: 0; Plant response rating, Barnyardgrass [9, 20]: 0; Kochia plant response rating (kochia (Kochia scoparia); [19]): 40; Plant response rating, Kochia (kochia (Kochia scoparia); [20]): 0; Galium plant response rating [10, 18]: 80; Blackgrass plant response rating ([11]; 1000 g ai/ha, 0 to 100 scale): 30
3 | COC(=O)Oc1c(Cl)nn(C)c(=O)c1-c1c(C)sc2ccc(Cl)cc12 [Compound 101] | 0 | 0 | 0 | 0 | 20 | 80 | 40 | 20 | 70 | 90 | 50 | 60 | 50 | 100 | – | 30 | 30 | 40 | 90 | – | Plant response rating, Wheat [4, 21]: 0; Plant response rating, Ragweed [5, 22]: 60; Ragweed plant response rating [5, 23]: 40; Plant response rating, Corn (corn (Zea mays); [21]): 0; Plant response rating, Pigweed [6, 22]: 30; Pigweed plant response rating [6, 23]: 90; Plant response rating, Foxtail, Giant [7, 22]: 30; Foxtail, Giant plant response rating [7, 23]: 30; Plant response rating, Ryegrass, Italian [8, 22]: 30; Ryegrass, Italian plant response rating [8, 23]: 60; Plant response rating, Barnyardgrass [9, 22]: 0; Barnyardgrass plant response rating ([9]; Postemergence, 500 g ai/ha, 0 to 100 scale, 0 is no effect, 100 is complete control): 30; Barnyardgrass plant response rating [9, 23]: 0; Plant response rating, Kochia (kochia (Kochia scoparia); [22]): 20; Kochia plant response rating (kochia (Kochia scoparia); [23]): 0; Plant response rating, Galium [10, 21]: 70; Plant response rating, Blackgrass [11, 21]: 20; Blackgrass plant response rating ([11]; 500 g ai/ha, 0 to 100 scale): 40
4 | CCC(=O)Oc1c(C)nn(C)c(=O)c1-c1c(C(F)(F)F)ccc2ccccc12 [Compound 147] | 0 | 0 | 0 | 0 | 80 | 90 | 90 | 0 | 90 | 100 | 80 | 40 | 100 | 100 | 40 | 60 | 100 | 80 | 100 | 90 | Plant response rating, Wheat [4, 21]: 20; Plant response rating, Ragweed [5, 22]: 90; Plant response rating, Corn (corn (Zea mays); [21]): 0; Plant response rating, Pigweed [6, 22]: 90; Pigweed plant response rating [6, 23]: 90; Plant response rating, Foxtail, Giant [7, 22]: 30; Foxtail, Giant plant response rating [7, 23]: 10; Plant response rating, Ryegrass, Italian [8, 22]: 90; Plant response rating, Barnyardgrass [9, 22]: 10; Barnyardgrass plant response rating [9, 23]: 30; Plant response rating, Kochia (kochia (Kochia scoparia); [22]): 80; Kochia plant response rating (kochia (Kochia scoparia); [23]): 50; Plant response rating, Galium [10, 21]: 90; Plant response rating, Blackgrass [11, 21]: 60
5 | COc1nn(C)c(=O)c(-c2c(C)sc3ccc(Cl)cc23)c1OS(C)(=O)=O [Compound 135] | 0 | 0 | 0 | 0 | 0 | 60 | 60 | 20 | 20 | 70 | 0 | 30 | 70 | 60 | 0 | 0 | 0 | 0 | 90 | 30 | Plant response rating, Wheat [4, 21]: 0; Plant response rating, Ragweed [5, 22]: 30; Ragweed plant response rating [5, 23]: 30; Plant response rating, Corn (corn (Zea mays); [21]): 0; Plant response rating, Pigweed [6, 22]: 0; Pigweed plant response rating [6, 23]: 30; Plant response rating, Foxtail, Giant [7, 22]: 0; Foxtail, Giant plant response rating [7, 23]: 20; Plant response rating, Ryegrass, Italian [8, 22]: 40; Ryegrass, Italian plant response rating [8, 23]: 20; Plant response rating, Barnyardgrass [9, 22]: 0; Barnyardgrass plant response rating [9, 23]: 0; Plant response rating, Kochia (kochia (Kochia scoparia); [22]): 0; Kochia plant response rating (kochia (Kochia scoparia); [23]): 0; Plant response rating, Galium [10, 21]: 60; Plant response rating, Blackgrass [11, 21]: 0
